Laboratory results reported in US20190224222A1, “METHOD OF INHIBITING QUORUM SENSING USING D-GALACTOSE” (Seoul National University R&DB Foundation, priority 2014, published 2019).

How the values were obtained:
[1] = system: P. gingivalis (Pg) biofilm; assay: Pg biofilm formation induced by Fn AI-2, fluorescence staining (confocal); type: cell-based, P. gingivalis (ATCC 33277); details: D-gal 200 mM vs furanone 20 μM
Procedure: Further, inhibitory effects of D-gal on Pg biofilm formation induced by Fn AI-2 were examined by fluorescence staining. 2 ml of Pg culture broth (the number of bacteria: 4×10^8/ml) was used, and Fn AI-2 was used in a volume of 10% (v/v) with respect to the total volume of a mixture with Pg culture broth. 200 mM of D-gal was used, and for comparison, the same test was performed using 20 μM of the furanone compound, instead of D-gal. Biofilms formed on the cover slip were stained with fluorescent materials using the live/dead-BacLight viability kit (Invitrogen, Grand Island, N.Y., USA) and observed using a confocal microscope (Carl Zeiss, LSM 700). […] Fluorescence intensities of the obtained individual fluorescence images were quantified using ZEN 2010 program of a confocal microscope, and shown in FIG. 6.

F. nucleatum = assay: Effect on bacterial growth of F. nucleatum (OD 600 nm); type: cell-based; details: D-galactose 100 mM, 37° C., anaerobic, 24-48 hours, vs control 0 mM
Procedure: In detail, F. nucleatum was cultured in the presence of 0 mM (control group) and 100 mM of D-galactose at 37° C. under anaerobic conditions for 24-48 hours, and then optical density at 600 nm was determined to measure cell growth.

S. mutans (Sm) biofilm [2] = assay: S. mutans biofilm formation, fluorescence staining (confocal); type: cell-based, Streptococcus mutans (ATCC 25175); details: D-gal 200 mM vs furanone compound 20 μM
Procedure: Further, the inhibitory effect of D-gal on Sm biofilm formation was examined by fluorescent staining. 2 ml (2×10^7/ml) of Sm culture broth was used, and 200 mM of D-gal and 20 μM of the furanone compound were used. Biofilms formed on the cover slip were stained with fluorescent materials using the live/dead-BacLight viability kit (Invitrogen, Grand Island, N.Y., USA) and observed using a confocal microscope (Carl Zeiss, LSM 700). […] Fluorescence intensities of the obtained individual fluorescence images were quantified using ZEN 2010 program of a confocal microscope, and shown in FIG. 16.

S. mutans (Sm) biofilm [3] = assay: S. mutans biofilm formation, crystal violet staining; type: cell-based, Streptococcus mutans (ATCC 25175); details: D-gal 2 mM
Procedure: 2 mL (2×10^7/ml) of the culture broth of a representative cariogenic bacterium S. mutans (Sm) and 2 mL (2×10^7/ml) of the culture broth of one of normal oral flora, S. oxalis (SO) were added to a saliva-coated glass slip (round, 12 mm radius), respectively and cultured with 0 mM or 2 mM of D-galactose to form biofilms. The formed biofilms were stained with crystal violet in the same manner as in Examples 3-6 to test biofilm formation according to the presence of D-galactose. Further, the biofilms were stained with fluorescent materials using the live/dead-BacLight viability kit (Invitrogen, Grand Island, N.Y., USA), followed by analysis. For comparison, 2 μM of the furanone compound was used instead of D-galactose to perform the same test.

In the case of O=C[C@H](O)[C@@H](O)[C@@H](O)[C@H](O)CO [D-gal, D-galactose], the “inhibitory effect on Pg biofilm formation, in words” value [1] is reported as “equivalent to that of the furanone compound”, the “effect on bacterial growth (cell growth curve, OD 600 nm), in words” value (F. nucleatum) is reported as “does not affect bacterial growth” and the “inhibitory effect on Sm biofilm formation, in words” value (S. mutans (Sm) biofilm [2]) is reported as “superior to that of the furanone compound”. The OD590 nm (S. mutans (Sm) biofilm [3]; Sm on saliva-coated glass slip, Sm control 0.48) was 0.37 and the “inhibitory effect on Sm biofilm formation, in words” value (S. mutans (Sm) biofilm [3]; crystal violet, furanone compound 2 μM) was “significant inhibitory effect”.
